“Also recorded” adds a separate entry of the source. Where only a bound is given, the exact number is not on record here.

This note sets out measurements from patent US7771956B2, “Method for detecting the presence of a phospholipid” (Brigham & Women's Hospital, Inc., priority 2003, dated 2010).

The subject of assay [1] is platelets. In words: Lactadherin binding to A23187-stimulated platelets (flow cytometry). The class given is cell-based. As to conditions: Platelet; 0.25 μM A23187 vs. unstimulated platelets; read-out: net increase of fluorescence (bound lactadherin). How it is done:
We asked whether platelets have a stimulated state when they bind lactadherin but not annexin V, consistent with the hypothesis that platelets have the capacity to regulate PS exposure at a level less than 2.5% PS (FIG. 8A-C). Platelets were incubated with fluorescein labeled lactadherin and Alexa Fluor 647 labeled annexin V. Because competition of either protein for the other's binding sites was <20% at these concentrations (FIG. 7C, 7D) we utilized both proteins simultaneously. The gain on the flow cytometer was set so that the intrinsic fluorescence of unstimulated platelets placed the population in the lower left quadrant of the display (FIG. 8A). […] Comparison with the unstimulated state indicates a net increase of fluorescence to approximately 3-fold. (FIG. 8B). The cross-hair allows comparison of modal fluorescence values for resting platelets vs. stimulated platelets.
In general terms: In flow cytometry, cells or beads pass a laser one at a time.

The subject of assay [2] is platelets. In words: Loss of NBD-PS fluorescence from stimulated platelets (PS exposure). The class given is cell-based. As to conditions: 10 μM A23187, 8 min. The source says:
In order to estimate the rate and extent of PS exposure on the platelet plasma membrane we utilized fluorescence-labeled PS (Reference 62). Prior reports indicate that platelets translocate NBD-PS to the inner leaflet of the plasma membrane, like unlabeled PS. When stimulated platelets transfer NBD-PS to the outer leaflet of the plasma membrane it is rapidly exchanged into delipidated albumin that is present in the buffer. Thus, translocation of NBD-PS to the outer plasma membrane causes a net loss in cell fluorescence. NBD-PS was loaded into membranes of resting platelets from donor vesicles prior to platelet purification. The rate and extent of platelet fluorescence loss provide an estimate of the rate and extent of plasma membrane PS exposure.
During the first minute after addition of TRAP the fluorescence loss was 12±1.8% vs. 5±2.5% for control platelets. Stimulation with 10 μM A23187 led to the same rate of fluorescence loss during the first minute but the rate was maintained so that after 8 min. >90% of NBD fluorescence was lost (FIG. 12B inset).

The target of assay [3] is T1, bovine lactadherin (fluorescein-labeled, purified from bovine milk) (Bos taurus, UniProt Q95114).
T1 construct: from tissue; host or cells: bovine milk
T1 sequence (Q95114 19-427): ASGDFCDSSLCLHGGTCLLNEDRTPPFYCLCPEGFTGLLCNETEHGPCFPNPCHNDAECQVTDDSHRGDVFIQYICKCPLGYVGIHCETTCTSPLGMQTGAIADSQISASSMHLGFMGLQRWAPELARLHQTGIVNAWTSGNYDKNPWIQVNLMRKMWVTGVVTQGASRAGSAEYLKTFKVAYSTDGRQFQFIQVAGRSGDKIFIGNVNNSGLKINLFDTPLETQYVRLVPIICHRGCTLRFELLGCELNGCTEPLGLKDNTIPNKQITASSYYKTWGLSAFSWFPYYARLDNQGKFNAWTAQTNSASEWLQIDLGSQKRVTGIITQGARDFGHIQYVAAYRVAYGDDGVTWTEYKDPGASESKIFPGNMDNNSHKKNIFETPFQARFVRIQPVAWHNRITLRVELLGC
The assay is described as follows: Equilibrium binding of fluorescein-labeled lactadherin to lipospheres (membranes on glass microspheres, flow cytometry). As to conditions: for binding of lactadherin: lipospheres with 2% synthetic dioleoyl lipid, 20% PE, balance PC, FIG. 5A. The protocol: (§1) Lactadherin was purified from bovine milk as previously described (Reference 1). Lactadherin, 0.2 mg in 0.2 ml phosphate-buffered saline, was concentrated 10-fold by ultrafiltration with a Centricon YM-10 (Millipore, Bedford, Mass.) followed by dilution to the starting concentration into 0.1 M sodium carbonate buffer, pH 9.0. Fluorescein isothiocyanate (Molecular Probes, Eugene, Oreg.) 6 μl of 10 mg/ml solution in DMSO, was added to lactadherin and the mixture was incubated for one hour at RT in the dark. Free fluorescein was removed by gel filtration using a micro spin column equilibrated with 0.1 M sodium carbonate, 0.1 M betaine, 0.004% Tween-80, pH 9.0 (FluoReporter FITC Protein Labeling Kit, Molecular Probes, Eugene, Oreg.). Fluorescein-labeled lactadherin was concentrated approx. 10-fold by ultrafiltration using a Centricon YM-10, and diluted to approximately the original concentration in 0.15 M NaCl, 50 mM Tris-HCl, pH 7.5. Labeling efficiency was judged by comparison of absorbance at 490 nm to absorbance at 280 nm (correcting for fluorescein absorbance at 280 nm).
Glass microspheres of 1.6 μm nominal diameter (Duke Scientific, Palo Alto, Calif.) were cleaned, size-restricted and covered with a phospholipid bilayer as previously described (Reference 17). Membranes supported by glass microspheres were washed three times in 0.15 M NaCl, 0.02 M Tris-HCl, 0.1% defatted bovine albumin, 10 μM egg PC as sonicated vesicles; stored at 4° C.; and used within 8 hours of synthesis. Fluorescein-labeled factor VIII (4 nM) was incubated with lactadherin or annexin V for 15 min at room temperature, the mixture was added to lipospheres for an additional 10 minutes, and membrane-bound fVIII was measured by flow cytometry. This procedure was performed on 150 μl aliquots with an approximate liposphere concentration of 1×10^6/ml using a Becton Dickinson FACSCalibur flow cytometer. Data acquisition was triggered by forward light scatter with all photomultipliers in the log mode. […] Mean log fluorescence was converted to linear fluorescence for values depicted in the figures. Only experiments in which the fluorescence histogram indicated a log normal distribution, as judged by inspection, were analyzed quantitatively. […]
The equilibrium binding of lactadherin to lipospheres was fitted by non-linear, least squares data analysis using the standard binding model (assuming a single class of binding sites and that the fraction of bound lactadherin was small at each concentration evaluated). […]
Fluorescein-labeled lactadherin interacted with phospholipid bilayers supported by glass microspheres (lipospheres). […] After 10 minutes, we measured bound lactadherin using flow cytometry (FIG. 1A). […]

For assay [4], the target named is T1, bovine lactadherin (fluorescein-labeled, purified from bovine milk). The assay is described as follows: Competition of soluble head group for fluorescein-lactadherin binding to lipospheres (flow cytometry). The conditions noted are these: for inhibition of lactadherin binding: concentrations as high as 0.35 M.
Experimental: Flow Cytometry Phospholipid Binding Assay
Glass microspheres of 1.6 μm nominal diameter (Duke Scientific, Palo Alto, Calif.) were cleaned, size-restricted and covered with a phospholipid bilayer as previously described (Reference 17). Membranes supported by glass microspheres were washed three times in 0.15 M NaCl, 0.02 M Tris-HCl, 0.1% defatted bovine albumin, 10 μM egg PC as sonicated vesicles; stored at 4° C.; and used within 8 hours of synthesis. […] This procedure was performed on 150 μl aliquots with an approximate liposphere concentration of 1×10^6/ml using a Becton Dickinson FACSCalibur flow cytometer. Data acquisition was triggered by forward light scatter with all photomultipliers in the log mode. Noise was reduced during analysis by eliminating events with forward and side scatter values different from those characteristic of the lipospheres. Mean log fluorescence was converted to linear fluorescence for values depicted in the figures. Only experiments in which the fluorescence histogram indicated a log normal distribution, as judged by inspection, were analyzed quantitatively. Flow cytometry experiments were performed in 0.14 M NaCl, 0.02 M Trizma-HCl, 0.1% bovine albumin, pH 7.5 with CaCl2 as specified for individual experiments.
Fluorescein-labeled lactadherin was incubated with 10^6 lipospheres/ml in Tris-buffered saline, 1.5 mM CaCl2, 0.1% BSA for 10 min. prior to evaluation of bound lactadherin by flow cytometry. The final concentrations of lactadherin were varied to estimate the affinity and stoichiometry of bound lactadherin.
To estimate the stereoselective affinity of lactadherin for the L-serine containing head group of Ptd-L-Ser, we performed binding inhibition studies (FIG. 5B).
Assay [5] has the same target. In words: Competition of phospholipid vesicles with lipospheres for fluorescein-labeled lactadherin. The class given is binding. As to conditions: for support of lactadherin binding: vesicles lacking Ptd-L-Ser, FIG. 4B; for effect on number of binding sites or affinity for lactadherin: extruded vesicles, 0-20% PE, 1% Ptd-L-Ser. The protocol:
as §1
Phospholipid vesicles were prepared by evaporating chloroform from the desired phospholipids, resuspending in methylene chloride and re-evaporating twice under argon. Large multilamellar vesicles were prepared by gently swirling tris-buffered saline (50 mM Tris, 150 mM NaCl, pH 7.4) over the dried lipid suspension until all lipid was suspended. Some of the large multilamellar vesicles were then utilized to prepare small unilamellar vesicles by sonication in a high intensity bath sonicator (Laboratory Supplies, Inc. Hicksville, N.Y.) under argon until visually clear (approx. 20 min.). Large unilamellar vesicles were made by extruding large multilamellar vesicle suspensions 20 times through […] polycarbonate membranes (Millipore, Bedford, Mass.) in a High Pressure Extrusion Device (Sciema Technical Services, Vancouver, BC, Canada) under argon as described previously (Reference 39). Phospholipid concentration was determined by phosphorus assay (Reference 40). Vesicles were used fresh, or 1 ml aliquots were quick-frozen in liquid nitrogen, stored at −80° C., and thawed at 37° C.
Glass microspheres of 1.6 μm nominal diameter (Duke Scientific, Palo Alto, Calif.) were cleaned, size-restricted and covered with a phospholipid bilayer as previously described (Reference 17). Membranes supported by glass microspheres were washed three times in 0.15 M NaCl, 0.02 M Tris-HCl, 0.1% defatted bovine albumin, 10 μM egg PC as sonicated vesicles; stored at 4° C.; and used within 8 hours of synthesis. Fluorescein-labeled factor VIII (4 nM) was incubated with lactadherin or annexin V for 15 min at room temperature, the mixture was added to lipospheres for an additional 10 minutes, and membrane-bound fVIII was measured by flow cytometry. This procedure was performed on 150 μl aliquots with an approximate liposphere concentration of 1×10^6/ml using a Becton Dickinson FACSCalibur flow cytometer. Data acquisition was triggered by forward light scatter with all photomultipliers in the log mode. Noise was reduced during analysis by eliminating events with forward and side scatter values different from those characteristic of the lipospheres. Mean log fluorescence was converted to linear fluorescence for values depicted in the figures. Only experiments in which the fluorescence histogram indicated a log normal distribution, as judged by inspection, were analyzed quantitatively. […]

In assay [6] the target is T2, Recombinant human factor VIII (Homo sapiens, UniProt P00451).
T2 construct: Gift from D. Pittman, Genetics Institute, Cambridge, Mass
The assay is described as follows: Binding of factor VIII to lipospheres. The conditions noted are these: lipospheres containing 4% Ptd-L-Ser; read-out: dissociation constant of factor VIII for lipospheres. The source says:
Human factor V was obtained from Haematologic Technologies Inc. (Burlington, Vt.). Recombinant human factor VIII was a gift from D. Pittman of Genetics Institute, Cambridge, Mass. Bovine brain phosphatidylserine (Ptd-L-Ser), egg yolk phosphatidylethanolamine (PE), bovine liver phosphatidylinositol, egg sphingomyelin, egg phosphatidylcholine (PC) and dioleoyl PC were obtained from Avanti Polar Lipids (Alabaster, AL). Phospholipase D from streptomyces, phospho-L-serine phospho-D-serine, L-serine and D-serine were obtained from Sigma.
Factor VIII and factor V were labeled with fluorescein maleimide (Molecular Probes, Eugene, Oreg.) as previously described (References 17 and 37). Protein concentration of factor VIII was determined using a Micro-BCA Assay (Pierce, Rockford, Ill.) using bovine albumin as a standard.
Glass microspheres of 1.6 μm nominal diameter (Duke Scientific, Palo Alto, Calif.) were cleaned, size-restricted and covered with a phospholipid bilayer as previously described (Reference 17). […] Fluorescein-labeled factor VIII (4 nM) was incubated with lactadherin or annexin V for 15 min at room temperature, the mixture was added to lipospheres for an additional 10 minutes, and membrane-bound fVIII was measured by flow cytometry. […] Mean log fluorescence was converted to linear fluorescence for values depicted in the figures. […]

T2 sequence (P00451 20-2351): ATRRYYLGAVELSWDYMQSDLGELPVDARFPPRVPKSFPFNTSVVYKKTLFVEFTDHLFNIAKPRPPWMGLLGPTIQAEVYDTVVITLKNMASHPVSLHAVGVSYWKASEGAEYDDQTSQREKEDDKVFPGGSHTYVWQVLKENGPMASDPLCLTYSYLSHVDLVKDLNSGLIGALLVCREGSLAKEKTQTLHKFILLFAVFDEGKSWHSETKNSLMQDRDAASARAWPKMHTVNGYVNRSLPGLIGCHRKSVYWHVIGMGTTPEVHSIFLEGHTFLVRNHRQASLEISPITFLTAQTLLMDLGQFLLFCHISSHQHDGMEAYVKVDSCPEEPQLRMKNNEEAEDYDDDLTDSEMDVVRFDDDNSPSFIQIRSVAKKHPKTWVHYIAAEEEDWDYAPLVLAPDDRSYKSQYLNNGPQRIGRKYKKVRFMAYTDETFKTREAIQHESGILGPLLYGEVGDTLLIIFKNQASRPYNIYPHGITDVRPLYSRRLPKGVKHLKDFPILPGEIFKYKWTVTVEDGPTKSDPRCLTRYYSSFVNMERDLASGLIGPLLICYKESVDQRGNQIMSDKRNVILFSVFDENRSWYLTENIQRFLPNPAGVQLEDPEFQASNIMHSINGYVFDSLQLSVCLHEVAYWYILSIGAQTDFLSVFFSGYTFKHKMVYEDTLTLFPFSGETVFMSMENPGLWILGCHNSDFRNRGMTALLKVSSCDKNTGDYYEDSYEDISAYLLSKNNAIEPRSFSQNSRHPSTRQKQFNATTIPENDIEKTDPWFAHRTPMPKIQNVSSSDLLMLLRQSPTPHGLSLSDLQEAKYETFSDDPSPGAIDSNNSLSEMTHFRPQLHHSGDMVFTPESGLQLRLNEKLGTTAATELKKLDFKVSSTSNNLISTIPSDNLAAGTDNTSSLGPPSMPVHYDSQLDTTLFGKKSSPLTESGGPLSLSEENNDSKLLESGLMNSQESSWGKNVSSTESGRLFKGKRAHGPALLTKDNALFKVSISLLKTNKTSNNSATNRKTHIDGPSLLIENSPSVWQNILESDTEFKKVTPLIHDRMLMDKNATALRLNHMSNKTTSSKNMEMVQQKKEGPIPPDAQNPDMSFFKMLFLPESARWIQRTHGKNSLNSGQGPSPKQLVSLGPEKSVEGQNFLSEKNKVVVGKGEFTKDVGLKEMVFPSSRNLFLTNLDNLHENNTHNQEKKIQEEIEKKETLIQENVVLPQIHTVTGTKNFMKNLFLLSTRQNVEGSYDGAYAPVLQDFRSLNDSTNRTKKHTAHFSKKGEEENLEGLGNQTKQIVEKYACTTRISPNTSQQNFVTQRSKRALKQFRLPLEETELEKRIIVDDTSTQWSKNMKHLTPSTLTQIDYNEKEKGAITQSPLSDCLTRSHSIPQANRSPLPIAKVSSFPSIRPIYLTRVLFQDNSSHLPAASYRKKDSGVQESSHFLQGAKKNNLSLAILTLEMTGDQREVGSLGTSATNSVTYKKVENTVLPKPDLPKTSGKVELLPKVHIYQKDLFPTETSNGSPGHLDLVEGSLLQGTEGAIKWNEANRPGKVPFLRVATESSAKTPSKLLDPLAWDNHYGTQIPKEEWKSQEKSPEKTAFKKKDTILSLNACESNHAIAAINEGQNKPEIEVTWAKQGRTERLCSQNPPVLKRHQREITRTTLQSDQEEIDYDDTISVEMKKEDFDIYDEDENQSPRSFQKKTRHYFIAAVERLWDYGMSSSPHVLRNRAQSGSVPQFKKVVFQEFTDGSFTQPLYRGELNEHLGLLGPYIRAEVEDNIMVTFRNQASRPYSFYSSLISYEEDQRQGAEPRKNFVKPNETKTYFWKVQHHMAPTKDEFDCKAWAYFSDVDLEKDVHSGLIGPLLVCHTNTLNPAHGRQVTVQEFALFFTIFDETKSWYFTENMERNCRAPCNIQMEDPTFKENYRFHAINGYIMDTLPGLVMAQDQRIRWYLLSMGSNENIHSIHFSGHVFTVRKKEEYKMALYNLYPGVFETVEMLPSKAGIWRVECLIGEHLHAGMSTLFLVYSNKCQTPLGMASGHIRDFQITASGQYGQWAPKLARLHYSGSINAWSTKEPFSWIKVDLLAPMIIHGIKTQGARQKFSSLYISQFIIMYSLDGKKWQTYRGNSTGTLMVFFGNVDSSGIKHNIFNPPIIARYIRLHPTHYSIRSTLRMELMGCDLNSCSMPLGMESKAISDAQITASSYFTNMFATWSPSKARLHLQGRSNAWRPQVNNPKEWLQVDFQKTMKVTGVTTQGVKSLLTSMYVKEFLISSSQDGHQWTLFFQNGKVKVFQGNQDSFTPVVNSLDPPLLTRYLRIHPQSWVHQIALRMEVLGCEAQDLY

Regarding `CNc1ccc2oc(C[C@H]3O[C@@]4(CC[C@H]3C)O[C@H]([C@H](C)C(=O)c3ccc[nH]3)[C@H](C)C[C@H]4C)nc2c1C(=O)O` [A23187], the fold induction at 0.25 µM with platelets [1] is around 3. In addition, the NBD fluorescence lost with platelets [2] is on record as above 90%.

As to `CCCCCCCC/C=C\CCCCCCCC(=O)OC[C@H](COP(=O)(O)OC[C@@H](N)C(=O)O)OC(=O)CCCCCCC/C=C\CCCCCCCC` [dioleoyl Ptd-D-Ser], in assay [3] (listed as Ptd-D-Ser), the binding of lactadherin result is “did not support binding of lactadherin above the level supported by control membranes of PE:PC 20:80”.

As to `CCCCCCCC/C=C\CCCCCCCC(=O)OC[C@H](COP(=O)(O)OC[C@H](N)C(=O)O)OC(=O)CCCCCCC/C=C\CCCCCCCC` [dioleoyl Ptd-L-Ser], the binding of lactadherin entry in assay [3] was “Lactadherin bound to membranes; also recorded: bound lactadherin with high affinity, comparable to Ptd-L-Ser from biologic sources”. On to `N[C@H](COP(=O)(O)O)C(=O)O` [phospho-D-serine], for which the “inhibition of lactadherin binding” value in assay [4] is given as at most 25%. For the same molecule, in assay [4] (inhibition of lactadherin binding to lipospheres), the “fold less effective as an inhibitor (vs. phospho-L-serine)” value is recorded as “at least 4 fold”.

phosphate: the “inhibition of lactadherin binding” value in assay [4] is listed as at most 25%. Consider phosphatidylcholine [PC], for which the “support of lactadherin binding” value in assay [5] is listed as “supported low affinity lactadherin binding”. Consider phosphatidylethanolamine [PE], for which the figures for the “effect on number of binding sites or affinity for lactadherin” value in assay [5] and in assay [5] (listed as phosphatidylethanolamine) were “did not influence the apparent number of binding sites or affinity for lactadherin” and “did not enhance the apparent affinity or number of lactadherin binding sites”, respectively.

For phosphatidylinositol, the “support of lactadherin binding” value in assay [5] was “does not support high affinity binding of lactadherin; also recorded: supported low affinity binding of lactadherin”.

Consider phosphatidylserine [Ptd-L-Ser], for which the Kd in assay [5] (sonicated vesicles of 16% Ptd-L-Ser, n<60, read-out: KD (lower limit)) is above 0.2 nM; in assay [3] (membranes Ptd-L-Ser:PE:PC 4:20:76 on glass microspheres, 10 min, read-out: KD (apparent)), 3.3 ± 0.4 nM; in assay [6] it was 4.8 nM. Also, the “apparent KD, 1% Ptd-L-Ser vs. 4% Ptd-L-Ser membranes (fold difference)” value in assay [3] (lipospheres of 1% vs. 4% Ptd-L-Ser) was at most 2 fold.
